# Earlier results, collected in US8778301B2, “Gamma-hydroxybutyrate compositions containing carbohydrate, lipid or amino acid carriers” (Orphan Medical, Inc., priority 2000, dated 2014).
# Where a name gives a salt, the structure may show the parent alone.
# Key:
# [1] = heroin and methadone withdrawal
# [2] = healthy volunteers, 12.5, 25 and 50 mg/kg
# [3] = patients
# [4] = patients; remark: listed apart in the source
# [5] = not given; remark: listed apart in the source
# [6] = in vivo
# [7] = intravenous administration, patients
# [8] = not given; remark: listed apart in the source
smiles,measurement,setting,value
"O=C(O)CCCO [GHB, Gamma-hydroxybutyric acid]",continuity of sleep,clinical trials,improves the continuity of sleep
same,delta sleep,clinical trials,increases delta sleep
same,REM latency,"human, in vivo",decreases REM latency
same,sleep apnea,"human, in vivo",reduces sleep apnea
same,total sleep time and REM sleep,"human, in vivo",increases total sleep time and REM sleep
same,symptoms of opiate withdrawal,[1],decrease the symptoms of opiate withdrawal
same,oral absorption and elimination processes,[2],capacity-limited
same,growth hormone levels,[3],increase growth hormone levels
same,"alcohol craving, daily drinks, alcohol withdrawal symptoms",[4],"reduce alcohol craving, the number of daily drinks consumed, and the symptoms of alcohol withdrawal"
same,organ or other toxicities in periodic clinical laboratory tests,[5]; long-term treatment of narcolepsy,have not indicated organ or other toxicities
same,development of tolerance,[5]; patients treated for many years,without development of tolerance
same,"signs and symptoms of narcolepsy (daytime sleepiness, cataplexy, sleep paralysis, hypnagogic hallucinations)",[6],substantially reduces the signs and symptoms of narcolepsy
same,intracranial pressure,[7],reduce intracranial pressure
"O=C(O)CCCO [GHB monosodium salt, sodium oxybate]",duration of normal sequence of NREM and REM sleep,"[8]; healthy human volunteers, low doses (about 30 mg/kg)",2 to 3 h
same,tolerance to sleep-inducing effects,"[8]; low doses, over time",without the development of tolerance
